Experiments:
Soybeans (Glycine max) = test: Seed application on soybeans in pouch, plant growth effects (shoot length, root system); format: in vivo; conditions: 14 days, additional growth vs blank formulation check
Method: The formulated test compounds were added to a defined amount of water. This solution was applied into a pouch which was previously equipped with a filter paper. After the application soybean seeds were sown into the upper fault of the filter paper. The prepared pouches were then incubated for 14 days at 25° C. and a relative humidity of 65% with a photo period of 16 h. The evaluation was made by assessing the shoot length and the root system. Data represent the average of 10 replicates (1seed/plant per pouch).

## CCOC(=O)OC1=C(c2cc(C)ccc2C)C(=O)N(C)C12CCN(OC)CC2 [Compound P1.1]
other
  melting point: 96 to 110 °C

## CCOC(=O)OC1=C(c2c(C)cc(C)cc2C)C(=O)N(C)C12CCN(OC)CC2 [Compound P1.2, Carbonic acid ethyl ester 8-methoxy-1-methyl-2-oxo-3-(2,4,6-trimethyl-phenyl)-1,8-diaza-spiro[4.5]dec-3-en-4-yl ester]
Soybeans (Glycine max); AI concentration 5 ppm
  Mean shoot height increase (%): 8.5%
  Mean shoot height increase in cm: 1.7 cm

## CCOC(=O)OC1=C(c2c(C)cc(C)cc2C)C(=O)N(CC)C12CCN(OC)CC2 [Compound P1.8]
other
  melting point: 101 to 103 °C

## CCOC(=O)OC1=C(c2c(C)cc(Br)cc2C)C(=O)N(C)C12CCN(OC)CC2 [Compound P1.12]
Soybeans (Glycine max); AI concentration 5 ppm
  Mean shoot height increase (%): 16.0%
  Mean shoot height increase in cm: 3.8 cm

## CCOC(=O)OC1=C(c2cc(C)c(C)cc2Br)C(=O)N(C)C12CCN(OC)CC2 [Compound P1.20]
other
  melting point: 158 to 159 °C

## CCOC(=O)OC1=C(c2c(C)ccc(C)c2C)C(=O)N(C)C12CCN(OC)CC2 [Compound P1.21]
Soybeans (Glycine max); AI concentration 5 ppm
  Mean shoot height increase (%): 24.5%
  Mean shoot height increase in cm: 5.8 cm

## CCOC(=O)OC1=C(c2cc(C)c(C)cc2Cl)C(=O)N(C)C12CCN(OC)CC2 [Compound P1.22]
other
  melting point: 149 to 150 °C

## COCON1C(=O)C(c2cc(C)ccc2C)=C(OC(=O)CC(C)(C)C)C12CCN(OC)CC2 [Compound P1ii.5]
other
  melting point: 93 to 95 °C

## CCOC(=O)OC1=C(c2c(C)cc(C)cc2C)C(=O)N(OCC)C12CCN(OC)CC2 [Compound P1ii.15]
Soybeans (Glycine max); AI concentration 5 ppm
  Mean shoot height increase (%): 38.9%
  Mean shoot height increase in cm: 3.8 cm

## COCON1C(=O)C(c2cc(C)ccc2C)=C(OC)C12CCN(OC)CC2 [Compound P1ii.31]
other
  melting point: 91 to 93 °C

## CCOC(=O)OC1=C(c2cc(C)c(C)cc2C)C(=O)N(OCOC)C12CCN(OC)CC2 [Compound P1ii.56]
Soybeans (Glycine max); AI concentration 5 ppm
  Mean shoot height increase (%): 7.2%
  Mean shoot height increase in cm: 1.7 cm

## CCOC(=O)OC1=C(c2cc(C)c(C)cc2C)C(=O)N(OC)C12CCN(OC)CC2 [Compound P1ii.57]
Soybeans (Glycine max); AI concentration 5 ppm
  Mean shoot height increase (%): 10.2%
  Mean shoot height increase in cm: 2.4 cm

## CCOC(=O)OC1=C(c2c(F)ccc(C)c2Cl)C(=O)N(OCOC)C12CCN(OC)CC2 [Compound P1ii.61]
other
  melting point: 116 to 119 °C

## CCOC(=O)OC1=C(c2c(C)cc(Cl)cc2C)C(=O)N(OC)C12CCN(OC)CC2 [Compound P1ii.114]
other
  melting point: 122 to 125 °C

## CON1CCC2(CC1)C(O)=C(c1cc(C)ccc1C)C(=O)N2C [Compound P2.1]
other
  melting point: 121 to 123 °C

## CON1CCC2(CC1)C(O)=C(c1c(C)cc(C)cc1C)C(=O)N2C [Compound P2.2, 4-hydroxy-8-methoxy-1-methyl-3-(2,4,6-trimethyl-phenyl)-1,8-diaza-spiro[4.5]dec-3-en-2-one]
Soybeans (Glycine max); AI concentration 4 ppm
  Mean shoot height increase (%): 7.2%
  Mean shoot height increase in cm: 1.4 cm

## CON1CCC2(CC1)C(O)=C(c1c(C)cc(C)cc1C)C(=O)N2CC1CC1 [Compound P2.8, 1-Cyclopropylmethyl-4-hydroxy-8-methoxy-3-(2,4,6-trimethyl-phenyl)-1,8-diaza-spiro[4.5]dec-3-en-2-one]
other
  melting point: 223 to 225 °C

## CCN1C(=O)C(c2c(C)cc(C)cc2C)=C(O)C12CCN(OC)CC2 [Compound P2.11]
other
  melting point: 218 to 221 °C

## CON1CCC2(CC1)C(O)=C(c1cc(C)c(C)cc1Br)C(=O)N2C [Compound P2.23]
other
  melting point: 191 to 193 °C

## CON1CCC2(CC1)C(O)=C(c1cc(C)c(C)cc1C)C(=O)N2C [Compound P2.25]
other
  melting point: 183 to 186 °C

## CON1CCC2(CC1)C(O)=C(c1cc(C)c(C)cc1Cl)C(=O)N2C [Compound P2.26, 3-(2-Chloro-4,5-dimethyl-phenyl)-4-hydroxy-8-methoxy-1-methyl-1,8-diaza-spiro[4.5]dec-3-en-2-one]
other
  melting point: 191 to 192 °C

## CON1CCC2(CC1)C(O)=C(c1cc(Br)c(C)cc1C)C(=O)N2C [Compound P2.28]
other
  melting point: 182 to 183 °C

## COCON1C(=O)C(c2c(C)cc(-c3ccc(Cl)cc3)cc2C)=C(O)C12CCN(OC)CC2 [Compound P2ii.15, 3-(4′-Chloro-3,5-dimethyl-biphenyl-4-yl)-4-hydroxy-8-methoxy-1-methoxymethoxy-1,8-diaza-spiro[4.5]dec-3-en-2-one]
other
  melting point: 128 °C (dec.)

## CON1CCC2(CC1)C(O)=C(c1c(C)cc(C)cc1C)C(=O)N2OCCOC1CCCCO1 (centres unmarked) [Compound P2ii.22]
other
  melting point: 135 to 137 °C

## COCON1C(=O)C(c2c(F)ccc(C)c2Cl)=C(O)C12CCN(OC)CC2 [Compound P2ii.60]
other
  melting point: 155 to 158 °C

## COCCON1C(=O)C(c2cc(Br)c(C)cc2C)=C(O)C12CCN(OC)CC2 [Compound P2ii.73]
other
  melting point: 63 to 64 °C

## CON1CCC2(CC1)C(O)=C(c1cc(Br)c(C)cc1C)C(=O)N2OC [Compound P2ii.75]
other
  melting point: 86 to 87 °C

## COCCON1C(=O)C(c2cc(Br)c(F)cc2C)=C(O)C12CCN(OC)CC2 [Compound P2ii.87]
other
  melting point: 71 to 74 °C

## COCON1C(=O)C(c2cc(Br)c(F)cc2C)=C(O)C12CCN(OC)CC2 [Compound P2ii.89]
other
  melting point: 64 to 67 °C

## CON1CCC2(CC1)C(O)=C(c1c(C)cc(C)cc1C)C(=O)N2OCC1CCCCC1 [Compound P2ii.96]
other
  melting point: 169 to 172 °C

## COCCON1C(=O)C(c2c(C)cc(Cl)cc2C)=C(O)C12CCN(OC)CC2 [Compound P2ii.101]
other
  melting point: 161 to 164 °C

## C=CCOC(=O)OC1=C(c2c(C)cc(C)cc2C)C(=O)N(C)C12CCN(OC)CC2 [T1.070, wherein G is COOCH2CH═CH2]
Soybeans (Glycine max); AI concentration 5 ppm
  Mean shoot height increase (%): 10.2%
  Mean shoot height increase in cm: 2.1 cm

## CCOC(=O)OC1=C(c2c(C)cc(Br)cc2CC)C(=O)N(C)C12CCN(OC)CC2 [T1.078, wherein G is COOCH2CH3]
Soybeans (Glycine max); AI concentration 5 ppm
  Mean shoot height increase (%): 8.1%
  Mean shoot height increase in cm: 1.7 cm

## CCOC(=O)OC1=C(c2c(C)cc(Cl)cc2OC)C(=O)N(C)C12CCN(OC)CC2 [T1.096, wherein G is COOCH2CH3]
Soybeans (Glycine max); AI concentration 5 ppm
  Mean shoot height increase (%): 6.6%
  Mean shoot height increase in cm: 1.4 cm

## CCOC(=O)OC1=C(c2c(C)cc(Cl)cc2C)C(=O)NC12CCN(OC)CC2 [T1iii.067, wherein G is COOCH2CH3]
Soybeans (Glycine max); AI concentration 5 ppm
  Mean shoot height increase (%): 15.5%
  Mean shoot height increase in cm: 3.9 cm

## CCOC(=O)OC1=C(c2c(C)cc(C)cc2CC)C(=O)NC12CCN(OC)CC2 [T1iii.071, wherein G is COOCH2CH3]
Soybeans (Glycine max); AI concentration 5 ppm
  Mean shoot height increase (%): 8.6%
  Mean shoot height increase in cm: 1.8 cm

## CCOC(=O)OC1=C(c2c(C)cc(C)cc2OC)C(=O)NC12CCN(OC)CC2 [T1iii.072, wherein G is COOCH2CH3]
Soybeans (Glycine max); AI concentration 5 ppm
  Mean shoot height increase (%): 8.9%
  Mean shoot height increase in cm: 2.1 cm

## CCOC(=O)OC1=C(c2c(C)cc(Cl)cc2OC)C(=O)NC12CCN(OC)CC2 [T1iii.096, wherein G is COOCH2CH3]
Soybeans (Glycine max); AI concentration 5 ppm
  Mean shoot height increase (%): 18.4%
  Mean shoot height increase in cm: 3.8 cm

## CCOC(=O)OC1=C(c2c(C)cc(C)cc2OC)C(=O)N(OCC)C12CCN(OC)CC2 [T3ii.072, wherein G is COOCH2CH3]
Soybeans (Glycine max); AI concentration 5 ppm
  Mean shoot height increase (%): 10.6%
  Mean shoot height increase in cm: 2.2 cm

## CCOC(=O)OC1=C(c2c(C)cc(Br)cc2CC)C(=O)N(OC2CCCO2)C12CCN(OC)CC2 (centres unmarked) [T25N.078, wherein G is COOCH2CH3]
Soybeans (Glycine max); AI concentration 5 ppm
  Mean shoot height increase (%): 14.5%
  Mean shoot height increase in cm: 3.0 cm

Source: patent US20140018242A1, “METHOD OF CROP ENHANCEMENT” (SYNGENTA PARTICIPATIONS AG, priority 2010, published 2014)
